Experimental data: patent publication US9375000B2, “Pesticidal arylpyrrolidines” (Bayer Intellectual Property GmbH, priority 2011, dated 2016)

What was measured:
Type in all cases: in vivo
[1] = test system: Larvae of Spodoptera litura; assay: Larvae of Spodoptera litura, method using artificial feeds; conditions: artificial feed, after 7 days; for pest or weed control at 20 ppm: Spodoptera litura, 168 h, read-out: insecticidal activity (pesticidal ratio)
Description: (§1) Unless not mentioned otherwise, the test solutions were prepared as follows:
(§2) Solvent: 3 parts by weight Dimethylformamide
(§3) Emulsifier: 1 part by weight Polyoxyethylene alkyl phenyl ether
(§4) In order to make an appropriate formulation of an active compound, 1 part by weight of the active compound is mixed with the above mentioned amount of solvent and emulsifier and the mixture is diluted with water to a prescribed concentration. Ammonium salt or ammonium salt and penetration enhancer in a dosage of 1000 ppm are added to the desired concentration if necessary.
[A Method Using Artificial Feeds (Trade Name: Insecta LFM, Manufactured by Nosan Corporation)]
Powdery artificial feeds (2.3 g) were added to a plastic cup (diameter: 7.5 cm, height: 4 cm) to achieve a certain thickness. Water-diluted liquid (5 ml) of the active compound prepared above having predetermined concentration was evenly poured thereto and allowed to stand until the feeds were solidified. Five of the 3rd-instar larvae of Spodoptera litura were released in respective cups, and covered. The cups were put in a temperature controlled room at 25° C. and humidity of 50 to 60%, and the number of dead larvae after 7 days was determined to calculate the pesticidal ratio. 100% pesticidal ratio means death of all the larvae, while 0% pesticidal ratio means no dead larvae.

[2] = test system: Cucurbit Leaf Beetle (Aulacophora femoralis); assay: Cucurbit leaf beetle (Aulacophora femoralis) cucumber leaf dip test; conditions: after 7 days; for pest or weed control at 20 ppm: Aulacophora, foliar, 168 h, read-out: insecticidal activity
Description: as §1, §2, §3, §4
Leaves of cucumber were immersed in the test solution at the appropriate concentration, and the leaves were dried in air. The leaves were then put in a plastic cup containing sterilized black soil and five Aulacophora femoralis at second instar larvae were released in the cup. The cups were placed in a temperature-controlled chamber at 25° C. After 7 days, the number of dead larvae was counted, and thus the insecticidal activity was calculated. An insecticidal activity of 100% means that all larvae were killed, whereas an insecticidal activity of 0% means that no larva was killed.

[3] = test system: Two-Spotted Spider Mite (Tetranychus urticae); assay: Two-spotted spider mite (Tetranychus urticae) spray test on kidney bean; conditions: after 7 days; for pest or weed control at 20 ppm: Tetranychus urticae, 168 h, read-out: acaricidal activity
Description: as §1, §2, §3, §4
50 to 100 adult mites of Tetranychus urticae were inoculated to leaves of kidney bean at two-leaf stage planted in a pot of 6 cm in diameter. After one day, test solution at the appropriate concentration was sprayed thereon in a sufficient amount using a spray gun. After the spraying, the plant pot was placed inside a greenhouse, and after 7 days, the acaricidal activity was calculated. An acaricidal activity of 100% means that all mites were killed, whereas an acaricidal activity of 0% means that no mite was killed.

[4] = active compound concentration 20 ppm
[5] = active compound concentration 4 ppm

Compound	insecticidal activity (pesticidal ratio) [1, 4] [%]	insecticidal activity [2, 4] [%]	acaricidal activity [3, 4] [%]	further results
CCC(=O)NCc1ccc(N2CCC(c3ccc(F)c(C(F)(F)F)c3)(C(F)(F)F)C2O)cc1C(F)(F)F (racemic) [A1-305]	100	100	100	–
O=C(NCc1ccc(N2CCC(c3ccc(F)c(C(F)(F)F)c3)(C(F)(F)F)C2O)cc1C(F)(F)F)C1CC1 (racemic) [A1-308]	100	100	100	–
CCC(=O)NCc1ccc(N2CCC(c3cccc(C(F)(F)F)c3)(C(F)(F)F)C2O)nc1C(F)(F)F (racemic) [A3-222]	100	100	100	–
O=C(NCc1ccc(N2CCC(c3cccc(C(F)(F)F)c3)(C(F)(F)F)C2O)nc1C(F)(F)F)C1CC1 (racemic) [A3-225]	100	100	100	–
O=C(CC(F)(F)F)NCc1ccc(N2CCC(c3cccc(C(F)(F)F)c3)(C(F)(F)F)C2O)nc1C(F)(F)F (racemic) [A3-227]	100	100	100	–
O=C(NCc1ccc(N2CCC(c3cc(Cl)cc(Cl)c3)(C(F)(F)F)C2O)cc1Cl)C1CC1 (centres unmarked) [A1-5]	100	100	100	–
O=C(CC(F)(F)F)NCc1ccc(N2CCC(c3cc(Cl)cc(Cl)c3)(C(F)(F)F)C2O)cc1Cl (centres unmarked) [A1-7]	100	100	100	–
CCC(=O)NCc1ccc(N2CCC(c3cc(Cl)c(Cl)c(Cl)c3)(C(F)(F)F)C2O)cc1Cl (centres unmarked) [A1-13]	100	100	100	–
CC(=O)NCc1ccc(N2CCC(c3cc(C(F)(F)F)cc(C(F)(F)F)c3)(C(F)(F)F)C2O)cc1Cl (centres unmarked) [A1-23]	100	100	100	–
CCC(=O)NCc1ccc(N2CCC(c3cc(C(F)(F)F)cc(C(F)(F)F)c3)(C(F)(F)F)C2O)cc1Cl (centres unmarked) [A1-24]	100	100	100	–
COCCC(=O)NCc1ccc(N2CCC(c3cc(C(F)(F)F)cc(C(F)(F)F)c3)(C(F)(F)F)C2O)cc1Cl (centres unmarked) [A1-30]	100	100	100	–
CSCC(=O)NCc1ccc(N2CCC(c3cc(C(F)(F)F)cc(C(F)(F)F)c3)(C(F)(F)F)C2O)cc1Cl (centres unmarked) [A1-31]	100	100	100	–
CS(=O)(=O)CC(=O)NCc1ccc(N2CCC(c3cc(C(F)(F)F)cc(C(F)(F)F)c3)(C(F)(F)F)C2O)cc1Cl (centres unmarked) [A1-33]	100	100	100	–
O=C(NCc1ccc(N2CCC(c3cc(Cl)cc(Cl)c3)(C(F)(F)F)C2O)cc1C(F)(F)F)C1CC1 (centres unmarked) [A1-38]	100	100	100	–
O=C(CC(F)(F)F)NCc1ccc(N2CCC(c3cc(Cl)cc(Cl)c3)(C(F)(F)F)C2O)cc1C(F)(F)F (centres unmarked) [A1-40]	100	100	100	–
CSCC(=O)NCc1ccc(N2CCC(c3cc(Cl)cc(Cl)c3)(C(F)(F)F)C2O)cc1C(F)(F)F (centres unmarked) [A1-42]	100	100	100	–
C[S+]([O-])CC(=O)NCc1ccc(N2CCC(c3cc(Cl)cc(Cl)c3)(C(F)(F)F)C2O)cc1C(F)(F)F (centres unmarked) [A1-43]	100	100	100	–
CS(=O)(=O)CC(=O)NCc1ccc(N2CCC(c3cc(Cl)cc(Cl)c3)(C(F)(F)F)C2O)cc1C(F)(F)F (centres unmarked) [A1-44]	100	100	100	–

Compound	insecticidal activity (pesticidal ratio) [1, 4] [%]	insecticidal activity [2, 4] [%]	acaricidal activity [3, 4] [%]	further results
CCC(=O)NCc1ccc(N2CCC(c3cc(Cl)c(Cl)c(Cl)c3)(C(F)(F)F)C2O)cc1C(F)(F)F (centres unmarked) [A1-46]	100	100	100	–
O=C(NCc1ccc(N2CCC(c3cc(Cl)c(Cl)c(Cl)c3)(C(F)(F)F)C2O)cc1C(F)(F)F)C1CC1 (centres unmarked) [A1-49]	100	100	100	–
O=C(CC(F)(F)F)NCc1ccc(N2CCC(c3cc(Cl)c(Cl)c(Cl)c3)(C(F)(F)F)C2O)cc1C(F)(F)F (centres unmarked) [A1-51]	100	100	100	–
CCC(=O)NCc1ccc(N2CCC(c3cc(Cl)c(Cl)c(Cl)c3)(C(F)(F)F)C2O)cc1Br (centres unmarked) [A1-162, N-{2-bromo-4-[2-hydroxy-3-(3,4,5-trichlorophenyl)-3-(trifluoromethyl)pyrrolidin-1-yl]benzyl}propanamide]	–	–	–	pest or weed control at 20 ppm [1, 4]: 100%; pest or weed control at 20 ppm [2, 4]: 100%; pest or weed control at 20 ppm [3, 4]: 100%
CCC(=O)NCc1ccc(N2CCC(c3cc(F)c(F)c(F)c3)(C(F)(F)F)C2O)cc1C(F)(F)F (centres unmarked) [A1-261]	100	100	100	insecticidal activity (pesticidal ratio) [1, 5]: 100%
O=C(NCc1ccc(N2CCC(c3cc(F)c(F)c(F)c3)(C(F)(F)F)C2O)cc1C(F)(F)F)C1CC1 (centres unmarked) [A1-264]	–	100	100	insecticidal activity (pesticidal ratio) [1, 5]: 80%; insecticidal activity [2, 5]: 100%
CCC(=O)NCc1ccc(N2CCC(c3cc(Cl)c(F)c(Cl)c3)(C(F)(F)F)C2O)cc1C(F)(F)F (centres unmarked) [A1-272]	100	100	100	–
O=C(NCc1ccc(N2CCC(c3cc(Cl)c(F)c(Cl)c3)(C(F)(F)F)C2O)cc1C(F)(F)F)C1CC1 (centres unmarked) [A1-275]	100	100	100	–
CCC(=O)NCc1ccc(N2CCC(c3cc(Cl)c(F)c(Cl)c3F)(C(F)(F)F)C2O)cc1C(F)(F)F (centres unmarked) [A1-283, N-{4-[3-(3,5-dichloro-2,4-difluorophenyl)-2-hydroxy-3-(trifluoromethyl)pyrrolidin-1-yl]-2-(trifluoromethyl)benzyl}propanamide]	–	–	–	pest or weed control at 20 ppm [1, 4]: 100%; pest or weed control at 20 ppm [2, 4]: 100%; pest or weed control at 20 ppm [3, 4]: 100%
O=C(NCc1ccc(N2CCC(c3cc(Cl)c(F)c(Cl)c3F)(C(F)(F)F)C2O)cc1C(F)(F)F)C1CC1 (centres unmarked) [A1-286]	100	100	100	–
CCC(=O)NCc1ccc(N2CCC(c3cc(Cl)cc(C(F)(F)F)c3)(C(F)(F)F)C2O)cc1C(F)(F)F (centres unmarked) [A1-338]	100	100	100	–
O=C(NCc1ccc(N2CCC(c3cc(Cl)cc(C(F)(F)F)c3)(C(F)(F)F)C2O)cc1C(F)(F)F)C1CC1 (centres unmarked) [A1-341]	100	100	100	–
CS(=O)(=O)CC(=O)NCc1ccc(N2CCC(c3cc(Cl)cc(C(F)(F)F)c3)(C(F)(F)F)C2O)cc1C(F)(F)F (centres unmarked) [A1-347]	100	100	100	–
O=C(NCc1ccc(N2CCC(c3cc(Cl)cc(Cl)c3)(C(F)(F)F)C2O)cc1C(F)(F)F)C1CCC1 (centres unmarked) [A1-361]	100	100	100	–
CC(=O)NCc1ccc(N2CCC(c3cc(Cl)cc(Cl)c3F)(C(F)(F)F)C2O)cc1C(F)(F)F (centres unmarked) [A1-405]	–	–	–	insecticidal activity (pesticidal ratio) [1, 5]: 100%; insecticidal activity [2, 5]: 100%; acaricidal activity [3, 5]: 100%
CCC(=O)NCc1ccc(N2CCC(c3cc(Cl)cc(Cl)c3F)(C(F)(F)F)C2O)cc1C(F)(F)F (centres unmarked) [A1-406]	–	–	–	insecticidal activity (pesticidal ratio) [1, 5]: 100%; insecticidal activity [2, 5]: 100%; acaricidal activity [3, 5]: 100%
CC(=O)NCc1ccc(N2CCC(c3cc(Cl)c(F)c(Cl)c3F)(C(F)(F)F)C2O)cc1Br (centres unmarked) [A1-429]	–	–	100	insecticidal activity (pesticidal ratio) [1, 5]: 100%; insecticidal activity [2, 5]: 100%
